In test [1] the test system is Primary rat cortical GN mix cultures. Briefly: NMDA-induced neurotoxicity in primary cortical glia-neuron (GN) mix culture, MAP2 and TUNEL staining. The class given is cell-based. The note with it: 9 DIV, 30 min pretreatment with 0.1 μM 14,15-EET or 10 μM AUDA, 24 h. How it is done:
Primary cortical NE cultures were prepared from embryonic day 17 SD fetal rats. The cultures were maintained in Neurobasal™ medium, and 9-10 days in vitro (DIV) culture was used for the study. Primary astrocyte cultures were prepared from SD rat pups at P1-2, with the purified astrocytes grown in 50% DMEM/50% Neurobasal™ medium containing heparin-binding EGF-like growth factor (HBEGF) or GNCM wherein GCM and NM are at a ratio of 1:1. Primary glia-neuron mix cultures were prepared from P0 rat brains. The harvested cerebral cortex was mechanically triturated in glia culture medium (GCM), comprising DMEM supplemented with 10% FBS. The mixture was stationed at room temperature for 1 minute, and the supernatant centrifuged at 1,500 rpm to obtain the cell pellet. The pellet was resuspended in GCM and seeded onto 24-well plates coated with poly-L-lysine (0.1 mg/mL). The culture medium was replaced with an embodiment of the GNCM medium of the present invention comprising a 1:1 mixture of GCM and B-27-containing Neurobasal™ 1 hour after the initial seeding.
The day of cell plating was considered as 0 DIV, and 9-10 DIV cultures were used for the experiments.
Primary rat cortical GN mix and NE cultures at 9 days in vitro were pretreated with 0.1 μM 14,15-EET, 10 μM 12-(3-adamantan-1-yl-ureido)-dodecanoic acid (AUDA), or vehicle for 30 min, and then treated with or without 14,15-epoxyeicosa-5(Z)-enoic acid (14,15-EEZE) (EZ) or N-methyl-D-aspartate (NMDA). Representative immunofluorescent images of MAP2 and TUNEL staining in GN mix and NE cultures were treated as indicated for 24 h. Total cell nuclei were counterstained with DAPI. Scale bar=50 μm.
Neuron dendrites were marked with MAP2 and colored in red, cell nuclei were marked with DAPI and colored in blue, while cell death was marked with TUNEL and colored in green.
Both MAP2^+ neurite density and TUNEL^+ cells were normalized by the total DAPI number in each quantified microscopic field.

The subject of test [2] is dorsal hippocampus of male SD adult rats. Briefly: kainic acid i.c.v. injection-induced hippocampal damage, NeuN, MAP2 and GLT-1 immunostaining. The class given is in vivo, rat. The protocol: To validate the in vitro results, the effect of sEH inhibition on neuronal loss in the hippocampus after excitotoxic insult was investigated in vivo. First examined was the effect of CNS administration of AUDA on kainic acid (KA), an epileptic seizure-inducing substance, i.c.v. injection-induced hippocampal damage in male SD adult rats. The extent of neuronal damage in the dorsal hippocampus was examined 24 h after the KA injection by immunostaining with NeuN and MAP2 for neuronal nuclei and dendrites, respectively.
Eight-week-old male SD rats were subjected to unilateral i.c.v. injection of saline, KA, or KA with the sEH inhibitor AUDA. Rat brains were harvested 24 h after the injection for immunohistochemistry.
NeuN^+ cells of each hippocampal subregion were determined by counting the number of NeuN^+/DAPI^+ cells and then normalized with respective saline treatment group. MAP2 area was determined by the percentage of the immunoreactive area in each hippocampal region of interest and then normalized with the respective saline treatment group. […] Scale bar=100 μm. When compared with FIGS. 20-23, it can be seen that the results of in vivo trials were more similar to those of the GN culture than the NE culture.
FIG. 27 is a quantitative analysis of images in FIG. 25. GLT-1 area was determined by the percentage of the immunoreactive area in each hippocampal region of interest and then normalized with the respective saline treatment group. Note that GLT-1 immunoreactivity was depleted in the stratum pyramidale (SP) and stratum lucidum (SL) layers of CA3 in the KA treatment group, and the effect was attenuated by the AUDA pretreatment.

The test system of another test is Oligodendrocytes. In words: excitotoxic NMDA treatment of oligodendrocytes in GN mix culture (RIP/NF200 staining). The class given is cell-based, mouse. The note with it: NM:GCM 1:1 medium, 5 μM NMDA at 14 DIV for 24 hour. The protocol: Oligodendrocytes obtained from mouse primary neonatal brain cells cultivated using the GN culture compositions provided in table 4 were treated with 5 μM NMDA at 14 DIV for 24 hour.
The cell nuclei are characterized by immunostaining shown in blue. […] Moreover, the response of oligodendrocytes to excitotoxic NMDA treatment can further mimic excitotoxicity-induced demyelination.

Test [3] addresses T1, aryl hydrocarbon receptor (AHR) (Mus musculus, UniProt P30561).
T1 construct: the brains of adult mice were used to study the effect of aryl hydrocarbon receptor modulation; from tissue; host or cells: adult mouse brain, peri-infarct cortex (in vivo)
T1 sequence (P30561 10-848): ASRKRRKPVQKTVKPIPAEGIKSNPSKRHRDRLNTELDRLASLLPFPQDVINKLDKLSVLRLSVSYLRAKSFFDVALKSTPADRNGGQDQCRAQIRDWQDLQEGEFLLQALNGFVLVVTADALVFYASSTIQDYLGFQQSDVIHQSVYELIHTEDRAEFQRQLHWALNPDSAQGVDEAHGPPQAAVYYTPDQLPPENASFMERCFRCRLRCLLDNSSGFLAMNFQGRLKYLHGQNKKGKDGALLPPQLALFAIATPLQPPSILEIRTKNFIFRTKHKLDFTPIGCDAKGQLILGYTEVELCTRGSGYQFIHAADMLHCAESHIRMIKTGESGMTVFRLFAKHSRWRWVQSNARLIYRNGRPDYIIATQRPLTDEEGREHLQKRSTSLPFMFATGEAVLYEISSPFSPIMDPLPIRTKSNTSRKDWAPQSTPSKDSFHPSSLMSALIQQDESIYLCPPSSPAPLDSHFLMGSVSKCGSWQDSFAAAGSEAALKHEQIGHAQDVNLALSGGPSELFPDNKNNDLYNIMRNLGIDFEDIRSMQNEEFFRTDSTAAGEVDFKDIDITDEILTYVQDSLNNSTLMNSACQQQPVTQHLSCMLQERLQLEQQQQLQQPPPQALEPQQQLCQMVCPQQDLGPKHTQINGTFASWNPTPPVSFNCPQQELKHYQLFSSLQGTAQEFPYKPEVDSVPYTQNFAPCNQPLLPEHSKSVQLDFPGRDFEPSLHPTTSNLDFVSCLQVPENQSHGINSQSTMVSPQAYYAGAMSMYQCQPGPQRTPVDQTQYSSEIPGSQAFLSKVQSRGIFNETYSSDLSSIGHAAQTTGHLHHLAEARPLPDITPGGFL
The note with it: WT mice, cited from earlier work.

Test [4] has as its system cells extracted from rat cerebral cortex. Briefly: LPS neuroinflammation and cell type population in glia cell and neuron co-culture in the media of Table 4. The class given is cell-based. How it is done:
To further examine the effects of various embodiments of mGNCM with different ratios of mNM and GCM of the present invention on cell type population and morphology of rat glia cells and neurons co-culture, six cell culture media were prepared to the specifications of Table 4.
On postnatal day 0 (P0), cells extracted from rat cerebral cortex were inoculated in each of the cell culture media of Table 4. Following 14 days of in vitro cultivation, immunostaining was performed on the control groups (CTL) to aid in the observation of cell type ratios, specifically of neurons, astrocytes, and microglia, and oligodendrocytes as well as cell morphology. Cultures of the LPS groups (LPS) were subjected to inflammatory stimulation via 1 μg/mL LPS at 13 days in vitro. After another 24 hours, the LPS groups were subjected to immunostaining as well, for the observation of cell morphology and cell count.

The test system of another test is mouse hippocampi. In words: intraperitoneal LPS injection, astrocyte and microglia plasticity in hippocampi. The class given is in vivo. The note with it: LPS i.p. for 7 days at 3 mg/kg body weight per injection, vs saline. How it is done:
To validate the results of in vitro LPS treatment of the present invention, LPS was injected intraperitoneally in mice for 7 days at 3 mg/kg body weight per injection and the astrocyte and microglia plasticity in mouse hippocampi examined. […] Astrocytes were marked with GFAP and colored in green, while cell nuclei were marked with DAPI and colored in blue.
Microglia were marked with Iba-1 and colored in green, while cell nuclei were marked with DAPI and colored in blue.

The test system of test [5] is rat cerebral cortex cells. In words: LPS neuroinflammation in cerebral cortex cells cultured in the media of Table 3. The note with it: for percentages of MAP2 positive cells in the total population (neurons): 1 μg/mL LPS for 24 hours on day 13. The class given is cell-based. An excerpt:
The efficacies of simulating in vivo cell morphology, cell interactions and responses to stimuli in vitro using mGNCM of different ratios of modified neuron medium (mNM) and glia culture medium (GCM) were compared, 1:1:, 2:1 and GCM only groups, and the GCM only group comprising only GCM and 10% FBS as shown in Table 3 above.
The effects of neuroinflammation simulation of rat cerebral cortex cells grown in vitro using the three embodiments of mGNCM of Table 3 were examined. Cells obtained from rat cerebral cortex were cultured in vitro for 13 days using the three culture media above, then treated with 1 μg/mL of lipopolysaccharides (LPS) for 24 hours on day 13 to trigger inflammation. Following LPS treatment, immunostaining was performed to observe cell population, morphology, and response to inflammatory stimulus.
The immunostaining images of FIG. 5 show neuronal population and response to LPS stimulation, wherein CTL represents control groups (not subjected to LPS treatment) and LPS represents groups treated with LPS to induce neuroinflammation. The images show astrocyte cytoskeleton marked with GFAP and colored in red, neuron dendrites marked with MAP2 and colored in green, as well as cell nuclei marked with DAPI and colored in blue. FIGS. 5A1-5A3 and 5B1-5B3 show cells cultured with GCM only, FIGS. 5C1-5C3 and 5D1-5D3 show cells cultured with 1:1 mNM and GCM, while FIGS. 5E1-5E3 and 5F1-5F3 show cells cultured with 2:1 mNM and GCM. The GCM only group comprises fewer neurons, and the cells are smaller and unhealthier in both CTL and LPS treatment groups.

[6] abbreviates: DGh and CA3, unilateral i.c.v. injection, 24 h after injection.
[7] abbreviates: DGh and CA3, KA i.c.v. vs saline, 24 h.
[8] abbreviates: TMF 5 mg/kg/day intraperitoneally, 48 h after MCAO.
Where [9] appears, read: all groups except for the GCM only group, 1 μg/mL LPS, 24 hours.

Regarding `CCCCCC1OC1CC=CCC=CCC=CCCCC(=O)O` (stereo not shown) [14,15-EET, 14,15-epoxyeicosatrienoic acid], in test [1], the “NMDA-induced MAP2+ neurite reduction” value is recorded as “significantly attenuated” and the “NMDA-induced cell death (TUNEL+ cells)” value was “significantly attenuated”.

For `O=C(O)CCCCCCCCCCCNC(=O)NC12CC3CC(CC(C3)C1)C2` [AUDA, 12-(3-adamantan-1-yl-ureido)-dodecanoic acid], in test [1], the “NMDA-induced MAP2+ neurite reduction” value was “significantly attenuated” and the “NMDA-induced cell death (TUNEL+ cells)” value is reported as “significantly attenuated”. In test [2] (setting [6]), the “KA-induced MAP2+ dendrite damage” value is listed as “significantly attenuated” and the “KA-induced NeuN+ cell loss” value is recorded as “significantly attenuated”. The “KA-induced depletion of GLT-1 immunoreactivity” value in test [2] (SP and SL layers of CA3, AUDA pretreatment) is on record as “attenuated”.

Consider `C=C(C)[C@H]1CN[C@H](C(=O)O)[C@H]1CC(=O)O` [KA, kainic acid], for which, in test [2] (setting [7]), the “MAP2+ dendrite area” value was “significantly reduced” and the “NeuN+ neurons” value is on record as “significantly reduced”. Moreover, the GLT-1 immunoreactivity result in test [2] (SP and SL layers of CA3, KA treatment group) is “depleted”.

Regarding `CN[C@H](CC(=O)O)C(=O)O` [NMDA, N-methyl-D-aspartate], the “oligodendrocyte process extension and arborization” value in the test on Oligodendrocytes was “disrupts”.

Take `COc1ccc(-c2cc(=O)c3cc(OC)ccc3o2)c(OC)c1` [TMF, 6,2′,4′-trimethoxyflavone]: in test [3] (setting [8]), the “GFAP-positive astrogliosis at the peri-infarct cortex after MCAO” value was “markedly decreased” and the “Iba1-positive microgliosis at the peri-infarct cortex after MCAO” value is on record as “markedly decreased”. Also, the “AHR immunoreactivity colocalized within Iba1-positive microglia and GFAP-positive astrocytes after MCAO” value in test [3] (TMF-treated vs vehicle-treated, peri-infarct cortex) is on record as “markedly decreased”.

As to lipopolysaccharides [LPS], the “Iba1 positive area per cell, control vs LPS groups” value in test [4] (1:1, 2:1, and 4:1 groups, 1 μg/mL LPS, 24 hours) is given as “significant differences”. Also, the “percentage of neurons in total cells (MAP2-circled cells in total DAPI)” value in test [4] (2:1 mGNCM group, 1 μg/mL LPS, 24 hours) is “significant neuronal loss”; in test [4] (setting [9]) it was “reduced”. Moreover, the “microglia morphology (Iba1)” value in test [4] (setting [9]) is on record as “induces microglial hypertrophy (microgliosis)”. In test [4] (different groups of GN mix cultures, 1 μg/ml LPS), the “oligodendrocyte (OL) cell density” value is recorded as “does not affect”. For the same molecule, the “percentage of astrocytes in total cells (GFAP-circled cells in total DAPI)” value in test [4] (groups of Table 4, 1 μg/mL LPS, 24 hours) was “does not cause significant proliferation or death of astrocytes”. Besides, the oligodendrocyte process shrinkage result in test [4] (mNM:GCM 0.5:1 and 1:1 media, 1 μg/ml LPS) was “can be observed”. In test [4] (mNM:GCM 1:1 medium only, 1 μg/mL LPS, 24 hours), the “percentage of microglia in total cells (Iba1 positive cells in total DAPI)” value is recorded as “induces significant microglia proliferation”. Further, in test [4] (mNM:GCM 2:1 co-culture system, 1 μg/mL LPS, 24 hours), the “microglia number (Iba1 images)” value is on record as “induces an increase of microglia”. For the same molecule, the “astrocyte morphology (GFAP)” value in test [4] (media of Table 4, 1 μg/mL LPS at 13 DIV, 24 hours) was “induces astrocyte hypertrophy and process arborization”. In addition, the “astrocyte plasticity (GFAP) in hippocampal CA1 and CA3” value in the test with mouse hippocampi is “induced astrocyte hypertrophy and proliferation”. For the same molecule, the “microglia plasticity (Iba-1) in hippocampal CA1” value in the test with mouse hippocampi is “induced microglial hypertrophy and proliferation”. In addition, the “astrocyte hypertrophy (GFAP)” value in test [5] (1:1 group and 2:1 group, 1 μg/mL LPS for 24 hours) is listed as “can be found”; in test [5] (GCM only group, 1 μg/mL LPS for 24 hours), “not observed”. The “microglia cell density and cell size (Iba1)” value in test [5] (1:1 group, 1 μg/mL LPS for 24 hours) is listed as “marked increase”. Besides, the “percentages of MAP2 positive cells in the total population (neurons)” value in test [5] (1:1 group) is on record as “induces neuronal loss”; in test [5] (GCM only and 2:1 groups) it was “not affected in this way”.

The values above are taken from patent publication US20230123863A1, “A GLIA CELL AND NEURON CO-CULTURE SYSTEM AND METHOD” (National Yang-Ming University, priority 2020, published 2023).
